These results are taken from patent US11738007B2, “Treatment of glaucoma using endothelin receptor antagonists” (Perfuse Therapeutics, Inc., priority 2019, dated 2023).

The subject of data set [1] is ETA/ETB receptor. Description: ETA/ETB selectivity (specificity). The data set is classed as biochemical. To be noted: ETA versus ETB, rating in words. An excerpt: (§1) In the above table, the physicochemical data, e.g., solubility, were obtained following standard protocols known in the field (see, e.g., Reis et al., Mini Rev Med Chem., 2010, 10(11):1071-6; Avdeef et al., Expert Opin Drug Metab Toxicol., 2005, 1(2):325-42; Bharate et al., Comb Chem High Throughput Screen., 2016, 19(6):461-9; and Jain et al., J Pharm Biomed Anal., 2013, 86:11-35); and the biochemical data, i.e., potency for ETA/ETB, were obtained following the protocols known in the field (see, e.g., Kirkby et al., Br J Pharmacol., 2008, 153(6):1105-19; and Maguire et al., Br J Pharmacol., 2014, 171(24):5555-72).

A short description of data set [2]: Pharmacokinetics after topical or oral administration in the rat. It counts as in vivo, Brown Norway rats. The protocol: After the administrations, the animals (N=2) were euthanized at different time points (e.g. 4 and 8 hours) and tissues were collected for analysis. List of tissues collected include plasma, retina/retinal pigment epithelium (RPE)/choroid, vitreous humor and aqueous humor.

The test system of data set [3] is elevated intraocular pressure (IOP). Description: Morrison's rat model of glaucoma (elevated IOP). To be noted: topical eye drops 100 μg per dose, five days a week, four weeks. The data set is classed as in vivo, Brown Norway rats. An excerpt:
Adult male and female retired breeder Brown Norway rats (approximate age groups of 8 to 11 months) were obtained from Envigo (Indianapolis, Ind.). Baseline IOP measurements and pattern electroretinogram (PERG) amplitudes were collected prior to the surgery for elevation of IOP (to ensure that the IOP and PERG amplitudes were in the expected range of values). IOP was elevated in one eye (left eye) of the rats, while the corresponding right eyes served as contralateral controls. The Morrison method to elevate IOP in rats was carried out by injection of 50 μL of hypertonic saline through the episcleral veins to sclerose the trabecular meshwork. IOP was measured twice a week throughout the entire duration of the experiment. […] After detecting an elevation of IOP for two consecutive days, topical administration of eye drops (20 μL (100 μg) per dose of the tested compounds in the IOP elevated eye) was commenced and carried out for five days a week for a total of four weeks. In the 4th week of treatment, PERG analysis was carried out and rats were sacrificed by an overdose of pentobarbital (Fatal-Plus). Aqueous humor was collected from the rat eyes, frozen and shipped for analysis. Retinal flat mounts were prepared, immunostained with the RGC marker, Brn3a antibody and surviving RGCs were counted in two eccentricities (central and peripheral). For this study, the Morrison's model was used to induce ocular hypertension in adult male retired breeder Brown Norway rats as previously described by Morrison et al., (Morrison J C, Moore […], Gold […], Johnson E C. A rat model of chronic pressure-induced optic nerve damage. Exp Eye Res. 1997; 64(1):85-96). The immunostained retinal flat mounts were obtained to measure the retinal ganglion cell (RGC) counts. To obtain immunostained retinal flat mounts, the animals were euthanized after the treatments and then their eyes were enucleated. The eye cups were fixed overnight at 4° C. in 4% paraformaldehyde (PFA) and retinal flat mounts were prepared for collecting images. The retinal ganglion cell (RGC) counting was conducted using the images of immunostained retinal flat mounts. The images were uploaded to ImageJ, a photo editor designed for biology research (Rasband, 1997-2018) and the labeled retinal ganglion cells were counted manually in two eccentricities (central and peripheral). […] Pattern ERG (PERG) was used to assess the RGC function. […] Briefly, PERG signals were acquired from a DTL-plus electrode placed on the lower part of the corneal surface and the PERG waves were analyzed using the EMWIN software (LKC). The difference between the amplitude of the major positive (P1) and negative (N2) waves were calculated to […] amplitude.

A short description of data set [4]: LogD. The data set is classed as physicochemical. The settings on record: pH 7.4.
Excerpt: as §1

Data set [5] can be described thus: Pharmacokinetics after intravitreal administration in the rabbit. The settings on record: plasma and ocular tissues, FIG. 9A-9D. It counts as in vivo, rabbits (Oryctolagus cuniculus). The protocol:
To determine the pharmacokinetic and safety properties of Edonentan following intravitreal administration in the rabbit, rabbits (Oryctolagus cuniculus) received bilateral intravitreal injections (20 μL injection volume/eye). Following the injections, animals were tranquilized with a ketamine/xylazine cocktail, and then the animals were euthanized with an overdose of sodium pentobarbital (Euthasol). Animals designated for the pharmacokinetic analysis were euthanized at different time points (e.g. 12, 16, 24, 36 and 48 hours). At least 1.0 mL of whole blood was drawn from the marginal ear vein or cardiac puncture (terminal bleed only) into K2EDTA tubes for plasma collection and processed for analytical analysis.
Immediately following euthanasia, the eyes was enucleated. Aqueous humor from both eyes was removed via syringe and snap frozen for analysis. Eyes were dissected when frozen to isolate various ocular tissues and minimize drug diffusion to adjacent tissues. Tissues from left and right eyes were collected in separate vials for analysis. List of tissues collected include plasma and aqueous humor, iris/ciliary body (ICB), retina, vitreous humor and RPE/choroid. The pharmacokinetic properties of intravitreally delivered Edonentan in rabbits are shown in FIG. 9A, FIG. 9B, FIG. 9C and FIG. 9D.

The target of data set [6] is T1, ETB receptor (Homo sapiens, UniProt P24530).
T1 sequence (P24530 27-442): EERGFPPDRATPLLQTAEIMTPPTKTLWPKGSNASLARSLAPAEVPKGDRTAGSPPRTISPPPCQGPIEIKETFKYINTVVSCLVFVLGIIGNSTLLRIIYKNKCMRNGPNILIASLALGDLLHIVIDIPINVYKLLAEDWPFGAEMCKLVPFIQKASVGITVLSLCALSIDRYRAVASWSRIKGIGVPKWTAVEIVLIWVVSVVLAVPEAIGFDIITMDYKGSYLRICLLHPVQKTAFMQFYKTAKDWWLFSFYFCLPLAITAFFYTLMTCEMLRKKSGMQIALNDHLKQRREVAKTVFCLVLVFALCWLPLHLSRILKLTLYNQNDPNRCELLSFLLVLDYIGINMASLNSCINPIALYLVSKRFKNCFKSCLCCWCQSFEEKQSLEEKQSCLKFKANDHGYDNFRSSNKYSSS
Put plainly: Functional potency for ETB receptor. It counts as biochemical.
Excerpt: as §1

As a reminder, the logD is the decadic logarithm of the distribution of all forms, ionised or not, between an organic phase and buffer at a given pH. A lower logD goes with lower lipophilicity. By IC50 is commonly meant the concentration needed to halve the response being measured. Lower therefore signals higher potency. Consider `Cc1onc(NS(=O)(=O)c2ccccc2-c2ccc(-c3ncco3)cc2CN(C)C(=O)CC(C)(C)C)c1C` [Edonentan, N-[[2′-[[(4,5-dimethyl-3-isoxazolyl)amino]sulfonyl]-4-(2-oxazolyl)[1,1′-biphenyl]-2-yl]methyl]-N,3,3-trimethylbutanamide], for which, in data set [1], the “Specificity (rating)” value is listed as “High specificity”. For the same compound, the “Detection in aqueous humor” value in data set [2] (oral, 17 mg/kg) is on record as “detectable”. For the same compound, the “Detection in retina/RPE/choroid and vitreous humor” value in data set [2] (oral, 1.7 and 17 mg/kg) is “detectable”. Further, in data set [2] (topical eye drop 100 μg, 4 and 8 hours post-administration), the “Detection in retina/RPE/choroid, aqueous humor and vitreous humor” value is listed as “detected”. Also, in data set [3], the “RGC function, pattern electroretinogram (PERG) changes” value is recorded as “maintained RGC function” and the “Retinal ganglion cell (RGC) counts, peripheral retina” value is “prevented RGC loss”. Besides, in data set [4], the logD was found to be 1.48. The t1/2 result in data set [5] is “longer”. Moreover, in data set [6], the IC50 was determined as 590 nM.
